Laboratory results: US5811463A, “Compositions and method for relaxing smooth muscles” (University of British Columbia, priority 1996, dated 1998)

Tests used:
[1] = test system: mean arterial pressure in conscious rats; assay: Depression of mean arterial pressure in conscious rats in vivo; set-up: species or system rat (Sprague-Dawley); conditions: intravenous bolus
Experimental: Likewise, in vivo tests may also be readily developed and utilized in order to determine the efficacy (and therapeutically effective amount) of the transition-metal nitrosyl complexes described above. For example, within one aspect of the present invention, a series of transition-metal nitrosyl complexes were tested in vivo for their ability to reduce the mean arterial blood pressure of conscious rats in vivo. Briefly, as described in greater detail below in Example 6, conscious, unrestrained rats were intravenous bolus injected with the transition-metal nitrosyl complexes. Five of the complexes were determined to dose-dependently reduce mean arterial pressure with maximum depressor effects which ranged from -36 to -59 mm Hg. Maximum depressor effects of sodium nitroprusside and nitroglycerin under similar conditions were -58 and -56 mm Hg, respectively. […] The results of the effects of the transition-metal nitrosyl complexes on the depression of mean arterial pressure in conscious rats in vivo are summarized in Example 5 and Table 1.
(§1) Examples 5-7 present in vitro and in vivo results of the evaluation of the efficiency of the transition-metal nitrosyl complexes in relaxing blood vessels and lowering blood pressure. Sprague-Dawley rats (300-400g) were used for all experiments. Each group consisted of 1-6 rats for the in vivo experiments and 3-6 aortic rings for the in vitro experiments. Each aortic ring was from a different rat.
Example 6 describes the results of the determination of the efficacy of the transition-metal nitrosyl complexes in reducing blood pressure of conscious, unrestrained rats. In these in vivo experiments, the depression of rat arterial pressure was measured as a function of transition-metal nitrosyl complex dose. Dose-response (pressure depression) curves were constructed and the capacities of the transition-metal nitrosyl complexes to reduce arterial pressure were compared and related to nitroglycerin and sodium nitroprusside. The results of these experiments are reported in terms of ED50 (effective dose to produce a 50% pressure depression response) and Emax (maximum decrease in blood pressure) and are summarized in Example 5, Table 1.
(§2) The rats were anaesthetized with halothane (4% in air for induction and 1.5% in air for surgery). A polyethylene cannula (PE50) was inserted into the left iliac artery for the measurement of mean arterial pressure (MAP) by a pressure transducer (P23DB, Gould Statham, Calif.). A PE50 cannula was also inserted into the iliac vein for the administration of the vehicle or a drug. The rats were then put into a small cage and given>6 hr to recover from the effects of anaesthesia and surgery before use. The rats were allowed to move freely during the recovery phase as well as during the conduction of the experiments as described in Wang and Pang, Br. J. Pharmacol. 103:2004-8, 1991. Only one dose-response curve of a metal nitrosyl complex, sodium nitroprusside, nitroglycerin or vehicle (0.9% NaCl solution or dimethylsulfoxide solution) was constructed in each rat. All drugs or vehicle were intravenous bolus injected at dose-intervals of 3-7 min, to allow the recovery of depressor responses, before the injection of the next higher dose.

[2] = test system: phenylephrine pre-constricted rat aortic rings; assay: Relaxation of phenylephrine pre-constricted rat aortic rings in vitro; set-up: species or system rat (Sprague-Dawley); conditions: phenylephrine 10^-6 M pre-constricted rat aortic rings; for EC50: read-out: In vitro EC50 (effective concentration to produce a 50% relaxation response)
From the text: As noted above, the present invention also provides methods for relaxing smooth muscle in a warm-blooded animal (e.g., humans, chimps, cows, goats, pigs, dogs, cats, rats or mice) comprising the step of administering to the animal a therapeutically effective amount of a transition-metal nitrosyl complex as described above. Briefly, the efficacy (and therapeutically effective amount) of a particular transition-metal nitrosyl complex may be readily determined by both in vitro and in vivo techniques. See generally Blattner et al., Experiments on Isolated Smooth Muscle Preparations, Hugo Sachs Elektronik KG, 1980 (incorporated herein by reference in its entirety). For example, within one embodiment, a small animal such as a rat, rabbit, or guinea-pig is sacrificed and exsanguinated. The required tissue (e.g., artery, vein, stomach, ileum, jejunum, caecum, colon, uterus, spleen, trachea, seminal vesicle, ductus deferens, or corpus cavernosum) is removed and placed in an oxygenated physiological solution (e.g., Krebs or Tyrode solution). This tissue is then cut such that one end is attached to the bottom of a muscle bath, and the other end to a force-displacement transducer (for example, Grass FT-03-C, Quincy, Mass.) for isometric recording with a physiological recorder (Grass, Model 79G). An appropriate pre-load (0.5 to 10 grams, depending on the tissue) is then applied, and the tissue equilibrated in the bath for one hour prior to the start of the study.
The measurement of smooth muscle contractile response may then be performed essentially as described by Pang and Sutter in Blood Vessels 17:293-301, 1980 (incorporated herein by reference in its entirety). Briefly, a dose-response curve of an agonist (e.g., phenylephrine, norepinephrine) is first obtained by measuring contractile response of the muscle as a function of agonist concentration. Response to the agonist is then measured beginning with the addition of the lowest dose of agonist to the bath. Each dose is equilibrated in the bath for 2 to 6 minutes in order to assure a steady state response, prior to proceeding to the next higher dose.
Measurement of the effectiveness of smooth muscle relaxant compositions may then be determined by measurement of the smooth muscle relaxation response, in a manner analogous to contractile response. See generally Wang, Poon and Pang, J. Pharm. Exp. Ther. 265:112-119, 1993 (incorporated herein by reference in its entirety). Briefly, tissue is first contracted with an agonist such as phenylephrine, usually at a concentration which results in 90% of the tissue's maximum contractile response (referred to EC90). At the steady state phase of the contractile response to the agonist, a cumulative dose-response curve for the smooth muscle relaxant may be determined. For each concentration of relaxant, a steady state is achieved and the relaxation response measured. […] For example, the EC50 of a relaxant is the effective concentration of the relaxant required to relax a pre-contracted muscle to 50% of its maximum contractile response.
as §1
Example 5 presents the results of the evaluation of the efficacy of the transition metal nitrosyl complexes in blood vessel relaxation. In these in vitro experiments, phenylephrine pre-constricted rat aortae were subjected to increasing doses of the transition-metal nitrosyl complexes, and the relaxation of the rat aortae measured. […]

conscious rats = assay: Toxic dose (convulsion / death) in conscious rats in vivo; set-up: species or system rat (Sprague-Dawley); unit not given here; conditions: intravenous bolus; for Toxic dose: dose which caused convulsion: footnote a; for Toxic dose: dose which caused neither convulsion nor death: footnote c
From the text: as §1
^a denotes dose which caused convulsion
^b denotes dose which caused death
^c denotes dose which caused neither convulsion nor death.
as §2

[3] = test system: phenylephrine-preconstricted rat aortic rings; assay: Tolerance: relaxation of rat aortic rings after pre-incubation with CpCr(NO)2 Cl or nitroglycerin; set-up: species or system rat (Sprague-Dawley); conditions: 1 h
From the text: In addition to determining efficacy of transition-metal nitrosyl complexes in either in vitro or in vivo tests, it is also generally preferably to determine whether the composition induces tolerance. For example, within one embodiment of the invention, induction of tolerance by the transition-metal nitrosyl complex described above may be readily determined by exposing rat aortic rings to a transition-metal nitrosyl complex prior to relaxation determinations. More specifically, as described in greater detail 10 below in Example 7, intact rat aortic rings were pre-incubated with a typical transition- metal nitrosyl complex for one hour prior to examination of its concentration-relaxation effect in phenylephrine-preconstricted conditions. Unlike the relaxation response of nitroglycerin, the relaxation response of the transition-metal nitrosyl complexes was not diminished by pre-exposure of the aortic ring to the complex.
as §1
Example 7 presents the results of pre-exposing the rat aortae to the transition-metal nitrosyl complexes to evaluate the development of tolerance. In these experiments, the rat aortic rings were pretreated with a transition-metal nitrosyl complex prior to the measurement of dose-dependent relaxation as described above in Example 5.
In this study, the vehicles, CpCr(NO)2 Cl (10^-6 M), or nitroglycerin (3×10^-4 M) was added to the baths for 1 h, followed by the washout of drug or vehicle, preconstriction with phenylephrine and the construction of a concentration-relaxation curve of CpCr(NO)2 Cl.

blood vessels = conditions: cited from earlier work
[4] = pre-incubation nitroglycerin 3×10^-4 M

Row | SMILES | In vivo ED50 (effective dose to produce a 50% pressure depression response) [1] [mg/kg] | In vivo Emax (maximum decrease in blood pressure) [1] [mmHg] | In vitro Emax (percent relaxation of phenylephrine-induced contraction) [2] [%] | EC50 [2] [nM] | Toxic dose: dose which caused convulsion (conscious rats) | also measured
1 | O=[N][Mo+]([Cl])[N]=O.c1cc[cH-]c1 [CpMo(NO)2 Cl, chloro(.eta.^5 -cyclopentadienyl)nitrosylmolybdenum] | 0.4 | -59 | -113 | 17000 |  | Toxic dose: dose which caused death (conscious rats; footnote b): 25,600
2 | C1CCNCC1.O=[N][Cr+][I].c1cc[cH-]c1 [CpCr(NO)(pip)I] |  |  | -110 | 450 |  | 
3 | O=N[O][Cr+]([N]=O)[N]=O.c1cc[cH-]c1 [CpCr(NO)2 (ONO), Nitrito(.eta.^5 -cyclopentadienyl)dinitrosylchromium] | 0.0015 | -45 | -98 | 100 | 1280 | 
4 | O=[N][W+].[C-]#[O+].[C-]#[O+].c1cc[cH-]c1 [CpW(NO)(CO)2, dicarbonyl(.eta.^5 -cyclopentadienyl)nitrosyltungsten] |  |  | -107 | 2500 | 500 | In vivo Emax (maximum decrease in blood pressure), in words ([1]; biphasic denotes depressor followed by pressor response): biphasic
5 | O=[N][Fe]1([N]=O)[I][Fe]([N]=O)([N]=O)[I]1 [[Fe(NO)2 I]2, Iodo(dinitrosyl)iron Dimer] | 0.554 | -51 | -108 | 20000 |  | Toxic dose: dose which caused neither convulsion nor death (conscious rats): 5120
6 | O=[N][W+]([Cl])[N]=O.c1cc[cH-]c1 [CpW(NO)2 Cl] | 2.976 | -36 | -122 | 2000 |  | Toxic dose: dose which caused neither convulsion nor death (conscious rats): 40,000
7 | O=[N][Cr+]([Cl])[N]=O.c1cc[cH-]c1 [CpCr(NO)2 Cl] | 0.0044 | -42 | -118 | 110 | 2,000 | effect of pre-incubation with CpCr(NO)2 Cl on EC50 and Emax ([3]; pre-incubation CpCr(NO)2 Cl 10^-6 M): did not alter the EC50 or Emax; effect of pre-incubation with nitroglycerin on EC50 and Emax ([3]; pre-incubation nitroglycerin 3×10^-4 M, cross-tolerance): did not alter the EC50 or Emax
8 | O=[N+]([O-])OCC(CO[N+](=O)[O-])O[N+](=O)[O-] [Nitroglycerin, glyceryl trinitrate, reference compound] |  | -56 |  | 300 |  | ED50 ([1]; Rattus norvegicus, read-out: In vivo ED50 (effective dose to produce a 50% pressure depression response)): 0.2 mg/kg; maximum depressor effect [1]: -56 mm Hg; tolerance on continual exposure (blood vessels): reduction in the ability of these compounds to vasodilate blood vessels; Emax ([2]; read-out: In vitro Emax (percent relaxation of phenylephrine-induced contraction)): -104%; effect of pre-incubation with nitroglycerin on EC50 [3, 4]: EC50 significantly increased; effect of pre-incubation with nitroglycerin on Emax [3, 4]: Emax unaltered
